These results are taken from EP1171440B1, “SUBSTITUTED-3-CYANO-[1.7],[1.5], AND [1.8]-NAPHTHYRIDINE INHIBITORS OF TYROSINE KINASES” (Wyeth Holdings Corporation, priority 1999, dated 2000).

In assay [1] the target is T1, EGF-R Kinase (recombinant enzyme) (Homo sapiens, UniProt P00533).
T1 construct: containing the EGFR cDNA encoding amino acids 645 - 1186 preceded by Met-Ala-(His)6; made in house; host or cells: Sf9 insect cells infected with recombinant baculovirus vHcEGFR52
Kind of assay: Inhibition of Epidermal Growth Factor Receptor Kinase (EGF-R) using recombinant enzyme, RR-SRC peptide phosphorylation with 33P-ATP. Type of assay: biochemical. The note with it: for inhibition at 0.5 µM: 0.5 µM concentration of test compound, read-out: % Inhibition @ 0.5; for pIC50: recombinant His-tagged cytoplasmic domain of EGFR, RR-SRC peptide, 90 min at room temperature, read-out: IC50. The protocol:
Representative test compounds were evaluated for their ability to inhibit the phosphorylation of the tyrosine residue of a peptide substrate catalyzed by the enzyme epidermal growth factor receptor kinase. […] The enzyme used in this assay is the His-tagged cytoplasmic domain of EGFR. A recombinant baculovirus (vHcEGFR52) was constructed containing the EGFR cDNA encoding amino acids 645 - 1186 preceded by Met-Ala-(His)6 . Sf9 cells in 100 mm plates were infected at an moi of 10 pfu/cell and cells were harvested 48 h post infection. A cytoplasmic extract was prepared using 1% Triton X-100 and applied to Ni-NTA column. After washing the column with 20 mM imidazole, HcEGFR was eluted with 250 mM imidazole (in 50 mM Na2HPO4, pH 8.0, 300 mM NaCl). Fractions collected were dialyzed against 10 mM HEPES, pH 7.0, 50 mM NaCl, 10% glycerol, 1ug/mL antipain and leupeptin and 0.1 mM Pefabloc SC. The protein was frozen in dry ice/methanol and stored -70° C.
Test compounds were made into 10 mg/mL stock solutions in 100% dimethylsulfoxide (DMSO). Prior to experiment, stock solutions were diluted to 500 uM with 100% DMSO and then serially diluted to the desired concentration with HEPES buffer (30 mM HEPES pH 7.4).
For the enzyme reaction, 10 uL of each inhibitor (at various concentrations) were added to each well of a 96-well plate. To this was added 3 uL of enzyme (1:10 dilution in 10mM HEPES, pH 7.4 for final conc. of 1:120). This was allowed to sit for 10 min on ice and was followed by the addition of 5 ul peptide (80 uM final conc.), 10ul of 4X Buffer (Table A), 0.25 uL ^33P-ATP and 12 uL H2O. The reaction was allowed to run for 90 min at room temperature and was followed by spotting the entire volume on to precut P81 filter papers. The filter discs were washed 2X with 0.5% phosphoric acid and radioactivity was measured using a liquid scintillation counter. Table A
The IC50 is the concentration of test compound needed to reduce the total amount of phosphorylated substrate by 50%. The % inhibition of the test compound was determined for at least three different concentrations and the IC50 value was evaluated from the dose response curve. […] CPM(control) is in units of counts per minute and was a number expressing the amount of radiolabeled ATP (γ-^33P) incorporated into the RR-SRC peptide substrate by the enzyme after 90 minutes at room temperature in the absence of test compound as measured by liquid scintillation counting. The CPM values were corrected for the background counts produced by ATP in the absence of the enzymatic reaction. Where it was possible to determine an IC50 value, this is reported in TABLE 1 otherwise the % inhibition at 0.5 µM concentration of test compound is shown in TABLE 1.

Assay [2] deals with Epithelial Cell Kinase (ECK) (Homo sapiens, UniProt P29317). Kind of assay: Inhibition of Epithelial Cell Kinase (ECK), nonradioactive peptide phosphorylation plate assay. The following applies: pH 7.2; multiple entries = tested multiple times. Type of assay: biochemical. The protocol: In this standard pharmacological test procedure, a biotinylated peptide substrate is first immobilized on neutravidin-coated microtiter plates. The test drug, the Epithelial Cell Kinase (ECK), Mg^++, sodium vanadate (a protein tyrosine phosphatase inhibitor), and an appropriate buffer to maintain pH (7.2) are then added to the immobilized substrate-containing microtiter wells. ATP is then added to initiate phosphorylation. After incubation, the assay plates are washed with a suitable buffer leaving behind phosphorylated peptide which is exposed to horse radish peroxidase (HRP)-conjugated anti-phosphotyrosine monoclonal antibody. The antibody-treated plates are washed again and the HRP activity in individual wells is quantified as a reflection of degree of substrate phosphorylation. This nonradioactive format was used to identify inhibitors of ECK tyrosine kinase activity where the IC50 is the concentration of drug that inhibits substrate phosphorylation by 50%. Multiple entries for a given compound indication it was tested multiple times.
Sequence of Epithelial Cell Kinase (ECK) (P29317 24-976, species assumed): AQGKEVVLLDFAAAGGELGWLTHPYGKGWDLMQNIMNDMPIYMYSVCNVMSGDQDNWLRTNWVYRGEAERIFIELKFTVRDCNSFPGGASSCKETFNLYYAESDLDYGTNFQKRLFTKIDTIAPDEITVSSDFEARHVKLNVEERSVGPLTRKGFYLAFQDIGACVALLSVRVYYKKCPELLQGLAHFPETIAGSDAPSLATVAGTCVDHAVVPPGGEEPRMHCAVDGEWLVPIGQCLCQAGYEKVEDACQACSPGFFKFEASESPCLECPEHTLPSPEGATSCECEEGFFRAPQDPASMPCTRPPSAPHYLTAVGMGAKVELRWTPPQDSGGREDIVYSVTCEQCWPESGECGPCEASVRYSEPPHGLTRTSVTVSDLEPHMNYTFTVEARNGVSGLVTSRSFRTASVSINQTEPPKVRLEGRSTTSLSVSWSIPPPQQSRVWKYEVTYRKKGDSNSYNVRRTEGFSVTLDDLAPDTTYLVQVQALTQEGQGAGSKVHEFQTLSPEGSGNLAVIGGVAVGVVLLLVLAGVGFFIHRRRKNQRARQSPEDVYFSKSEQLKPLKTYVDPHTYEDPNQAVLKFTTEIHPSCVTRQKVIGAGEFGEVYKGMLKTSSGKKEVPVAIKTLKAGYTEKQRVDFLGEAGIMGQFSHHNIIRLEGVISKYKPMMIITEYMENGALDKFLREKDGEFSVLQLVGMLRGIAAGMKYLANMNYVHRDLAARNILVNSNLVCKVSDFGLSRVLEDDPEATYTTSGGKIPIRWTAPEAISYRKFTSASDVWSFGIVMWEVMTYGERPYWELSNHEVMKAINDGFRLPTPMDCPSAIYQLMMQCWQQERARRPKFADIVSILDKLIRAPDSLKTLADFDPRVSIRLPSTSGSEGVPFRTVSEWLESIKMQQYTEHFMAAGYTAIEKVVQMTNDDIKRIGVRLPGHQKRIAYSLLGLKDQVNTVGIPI

Assay [3] concerns the target Mitogen Activated Protein Kinase (Mek-Erk) (Homo sapiens, UniProt P28482+Q02750). The experiment in a line: Mitogen Activated Protein Kinase (MAPK) coupled MEK 1 / ERK2 assay. The assay is classed as biochemical. The following applies: separate entries = evaluated more than one time. As for the experimental part:
To evaluate inhibitors of the MAP (mitogen activated protein) kinase a two component coupled standard pharmacological test procedure, which measures phosphorylation of a serine/threonine residue in an appropriate sequence in the substrate in the presence and absence of a putative inhibitor, was used. Recombinant human MEK 1 (MAPKK) was first used to activate recombinant human ERK2 (MAPK) and the activated MAPK (ERK) was incubated with substrate (MBP peptide or MYC peptide) in the presence of ATP, Mg^+2 and radiolabeled ^33P ATP. The phosphorylated peptide was captured on a P 81 phosphocellulose filter (paper filter or embedded in microtiter plate) washed and counted by scintillation methods.
The peptide substrates used in the assay are MBP, peptide substrate ([…]), or synthetic Myc substrate, ([…]•5 TFA. The recombinant enzymes used were prepared as GST fusion proteins of human ERK 2 and human MEK 1. Inhibitor samples were prepared as 10X stocks in 10% DMSO and an appropriate aliquot was used to deliver either 10 ug/ml for a single point screening dose or 100, 10, 1, and 0.1 uM final concentration for a dose response curve. Final DMSO concentrations were less than or equal to 1%.
The reaction was run as follows in 50 mM Tris kinase buffer, pH 7.4 in a reaction volume of 50 ul. The appropriate volume of kinase buffer and inhibitor sample was added to the tube. Appropriate dilution of enzyme was delivered to give 2-5 ug recombinant MAPK (Erk ) per tube. The inhibitor was incubated with MAPK (Erk) for 30 min at 0 deg. C. Recombinant Mek (MAPKK) ( 0.5-2.5 ug) or fully activated Mek (0.05-0.1 units) was added to activate the Erk and incubated for 30 min at 30° C. Then substrate and gamma ^33P ATP was were added to give a final concentration of 0.5- 1 mM MBPP or 250-500 uM Myc; 0.2-0.5 uCi gamma ^33P ATP/tube; 50 µM ATP final concentration. Samples were incubated at 30°C for 30 minutes and the reaction was stopped by adding 25 µl of ice cold 10 %TCA. After samples were chilled on ice for 30 min, 20 µl of sample was transferred onto P 81 phosphocellulose filter paper or appropriate MTP with embedded P 81 filter. Filter papers or MTP were washed 2 times with a large volume of 1% acetic acid, then 2 times with water. The filters or MTP were briefly air dried before addition of scintillant and samples were counted in the appropriate scintillation counter set up for reading ^33P isotope. Samples included a positive control (activated enzyme plus substrate); a no enzyme control; a no substrate control; samples with different concentrations of putative inhibitor; and samples with reference inhibitors (other active compounds or non-specific inhibitors such as staurosporine or K252 B).
The raw data was captured as cpm. Sample replicates were averaged and corrected for background count. Mean cpm data was tabulated by group and % inhibition by a test compound was calculated as (corrected cpm control- corrected. cpm sample/control) X 100 = % inhibition. If several concentrations of inhibitor were tested, IC50 values (the concentration which gives 50% inhibition) were determined graphically from the dose response curve for % inhibition or by an appropriate computer program. The results obtained for representative compounds of this invention are listed in TABLE 3 where there may be separate entries for the same compound; this is an indication that the compound was evaluated more than one time.

Another assay concerns A2780DDP. Kind of assay: Inhibition of Cancer Cell Growth as Measured by Cell Number (Sulforhodamine B). Type of assay: cell-based, Human. The note with it: 48 hours exposure. The protocol:
(§1) After 48 hours exposure to test compounds, cells were fixed with trichloroacetic acid, and stained with Sulforhodamine B. After washing with trichloroacetic acid, bound dye was solubilized in 10 mM Tris base and optical density was determined using a plate reader. Under conditions of the assay the optical density is proportional to the number of cells in the well. […] The test procedure is described in details by Philip Skehan et. al, J.Natl. Canc. […] The Her2Neu cell line is a 3T3 line that has bbeen transfected with Her2 receptor kinase.

In a further assay the test system is A2780S. The description is as above. The assay is classed as cell-based, Human. The note with it: 48 hours exposure. As for the experimental part: as §1
The subject of a further assay is A431. The assay is described as above. The assay is classed as cell-based, Human. The following applies: 48 hours exposure. The protocol: as §1
Another assay has as its system LOX. Described as above. The note with it: 48 hours exposure. Type of assay: cell-based, Human. As for the experimental part:
as §1

In the next assay the test system is MDA435. The assay is described as above. The assay is classed as cell-based, Human. The following applies: 48 hours exposure. As for the experimental part:
as §1

For a further assay, the system named is SKBR3. Described as above. The assay is classed as cell-based, Human. As for the experimental part: as §1
In another assay the test system is SW620. Described as above. The assay is classed as cell-based, Human. As for the experimental part:
as §1

[4] abbreviates: Homo sapiens, 48 h, read-out: IC50.
[5] abbreviates: Homo sapiens, A-431, 48 h, read-out: IC50.
Where [6] appears, read: Homo sapiens, MDA435, 48 h, read-out: IC50.
Setting [7] is: Homo sapiens, SK-BR-3, 48 hours exposure, read-out: IC50.
Where [8] appears, read: Homo sapiens, SW-620, 48 hours exposure, read-out: IC50.

pIC50: −log10 of the molar value. Converted amounts (≈) assume the structure as drawn. Like-named read-outs stand apart in the source and are kept apart here.

T1 sequence (P00533 669-1210): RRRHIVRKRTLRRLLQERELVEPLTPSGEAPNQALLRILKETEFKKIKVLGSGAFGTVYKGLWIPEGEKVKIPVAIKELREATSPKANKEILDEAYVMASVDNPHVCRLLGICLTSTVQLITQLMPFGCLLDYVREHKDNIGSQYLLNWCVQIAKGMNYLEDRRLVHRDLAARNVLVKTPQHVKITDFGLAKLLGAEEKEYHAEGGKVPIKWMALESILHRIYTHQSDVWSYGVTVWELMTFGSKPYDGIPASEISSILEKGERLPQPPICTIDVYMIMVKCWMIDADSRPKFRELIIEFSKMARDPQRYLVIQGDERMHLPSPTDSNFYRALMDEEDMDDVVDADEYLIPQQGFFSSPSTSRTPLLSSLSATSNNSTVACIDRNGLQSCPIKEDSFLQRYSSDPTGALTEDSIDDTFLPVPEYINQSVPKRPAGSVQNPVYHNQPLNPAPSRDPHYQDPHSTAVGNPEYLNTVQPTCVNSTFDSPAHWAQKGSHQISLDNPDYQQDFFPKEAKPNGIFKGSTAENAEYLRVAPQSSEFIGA
Sequence of Mitogen Activated Protein Kinase (Mek-Erk) (P28482 2-360): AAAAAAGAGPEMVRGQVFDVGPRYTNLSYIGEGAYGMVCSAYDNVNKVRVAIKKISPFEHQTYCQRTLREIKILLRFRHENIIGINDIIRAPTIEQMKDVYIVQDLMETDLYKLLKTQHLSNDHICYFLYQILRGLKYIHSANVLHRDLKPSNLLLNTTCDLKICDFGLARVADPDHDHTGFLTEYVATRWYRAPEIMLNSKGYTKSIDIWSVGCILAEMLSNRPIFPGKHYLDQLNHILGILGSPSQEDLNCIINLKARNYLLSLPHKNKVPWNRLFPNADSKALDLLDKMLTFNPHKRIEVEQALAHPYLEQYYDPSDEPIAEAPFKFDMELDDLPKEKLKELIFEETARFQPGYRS
Sequence of Mitogen Activated Protein Kinase (Mek-Erk) (Q02750 whole entry): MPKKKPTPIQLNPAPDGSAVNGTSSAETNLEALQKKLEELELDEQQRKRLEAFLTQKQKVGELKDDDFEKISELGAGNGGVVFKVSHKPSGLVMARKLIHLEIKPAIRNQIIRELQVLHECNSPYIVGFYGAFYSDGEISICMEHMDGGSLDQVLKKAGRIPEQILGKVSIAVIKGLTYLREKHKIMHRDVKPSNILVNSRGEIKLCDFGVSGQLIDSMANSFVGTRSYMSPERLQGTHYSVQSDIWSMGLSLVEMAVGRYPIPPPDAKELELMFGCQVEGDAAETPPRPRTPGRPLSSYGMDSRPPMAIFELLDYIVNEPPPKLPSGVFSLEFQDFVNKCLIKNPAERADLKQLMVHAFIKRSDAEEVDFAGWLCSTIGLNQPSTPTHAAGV

Take `N#Cc1cnc2ccc(OCCCN3CCOCC3)nc2c1Nc1cccc(Br)c1` [Example 44, 4-(3-Bromo-phenylamino)-6-(3-morpholin-4-yl-propoxy)-[1.5]naphthyridine-3-carbonitrile]: the inhibition (commonly how much of the control response was suppressed) at 0.5 µM in assay [1] stood at 25.4%. Also, the pIC50 (as a rule, −log10 of the IC50, conventionally taken in molar units) in assay [1] was 6.00; in assay [2], below 5.68; in assay [3] it was below 4.00.
`CC#CC(=O)Nc1cnc2ncc(C#N)c(Nc3cccc(Br)c3)c2c1` [Example 24, But-2-ynoic acid [5-(3-bromo-phenylamino)-6-cyano-[1.8]-naphthyridin-3-yl]-amide]: the figures for the pIC50 in [1], in assay [2] and in assay [3] were 7.00, 7.52 and below 4.00, respectively.
For the compound `N#Cc1cnc2cnc(NCCN3CCOCC3)cc2c1Nc1cccc(Br)c1` [Example 63, 4-(3-Bromo-phenylamino)-6-(2-morpholino-4-yl-ethylamino)-[1.7]naphthyridine-3-carbonitrile], the pIC50 in [1] is 6.00. In addition, the half-maximal inhibitory concentration (IC50) (in general, the concentration that gives 50% inhibition) with A2780DDP (setting [4]) amounted to 0.8 µg/mL (≈ 1.76 µM); in the assay with A2780S (setting [4]), 0.5 µg/mL (≈ 1.1 µM); in the assay with A431 (setting [5]) it was 0.5 µg/mL (≈ 1.1 µM); in the assay with LOX (Homo sapiens, read-out: IC50), 57 µg/mL (≈ 126 µM); in the assay with MDA435 (setting [6]), 49 µg/mL (≈ 108 µM); with SKBR3 (setting [7]), 0.4 µg/mL (≈ 0.882 µM). In addition, in the assay with SW620 (setting [8]), the concentration for half-maximal inhibition (IC50) stood at 41 µg/mL (≈ 90.4 µM).
With `COc1ccc(CNc2cc3c(Nc4cccc(Br)c4)c(C#N)cnc3cn2)cc1` [Example 58, 4-(3-Bromo-phenylamino)-6-(4-methoxy-benzylamino)-[1.7]naphthyridine-3-carbonitrile], the negative logarithm of the IC50 (pIC50) in assay [1] is below 7.00; in [3], below 4.00. Moreover, the IC50 in the assay with A2780DDP (setting [4]) came to 1.8 µg/mL (≈ 3.91 µM); in the assay with A2780S (setting [4]) it was 1 µg/mL (≈ 2.17 µM); in the assay with A431 (setting [5]), 0.4 µg/mL (≈ 0.869 µM); in the assay on MDA435 (setting [6]) it was 2.4 µg/mL (≈ 5.21 µM); in the assay on SKBR3 (setting [7]) it was 2.9 µg/mL (≈ 6.3 µM); in the assay on SW620 (setting [8]) it was 4.1 µg/mL (≈ 8.91 µM).
For `N#Cc1cnc2cnc(F)cc2c1Nc1ccc(F)c(Cl)c1` [Example 69, 4-(3-Chloro-4-fluoro-phenylamino)-6-fluoro-[1.7]naphthyridine-3-carbonitrile], in [2], the pIC50 is below 5.51.
`Cc1ccc(Nc2c(C#N)cnc3ccc(OCCCN4CCOCC4)nc23)cc1O` [Example 43, 4-(3-Hydroxy-4-methyl-phenylamino)-6-(3-morpholin-4-yl-propoxy)-[1.5]naphthyridine-3-carbonitrile]: the inhibition at 0.5 µM in assay [1] stood at 37.1%. Moreover, the negative-log IC50 (pIC50) in [1] is 6.00; in assay [2] it was below 5.64; in assay [3], below 4.00.
On to “1-[4-(3-Bromo-phenylamino)-3-cyano-[1.7]naphthyridin-6-yl]-4-dimethylamino- pyridinium fluoride [Example 65]”, for which the IC50 came out at 52 µg/mL with A2780DDP; 31 µg/mL in the assay with A2780S; 59 µg/mL in the assay on A431; 56 µg/mL in the assay with LOX; 47 µg/mL in the assay on MDA435; 41 µg/mL in the assay on SKBR3 (48 hours exposure). Moreover, the half-inhibitory concentration (IC50) in the assay with SW620 (48 hours exposure) came to 42 µg/mL.
